In patent publication US9795574B2, “Method for preparing agomelatine cocrystals and composition containing same” (SOONCHUNHYANG UNIVERSITY INDUSTRY ACADEMY COOPERATION …, priority 2014, dated 2017):

Columns and labels:
[1] = Intrinsic dissolution rate (IDR) of pellets, USP equipment 2 (paddle method); assay type: physicochemical; details: for Dissolution rate (intrinsic dissolution rate in terms of ratio): 37° C., 50 rpm, ratio to agomelatine
Procedure: In order to measure the intrinsic dissolution rate (IDR) of agomelatine and the agomelatine-resorcinol co-crystal, 50 mg of agomelatine and 72.63 mg of the agomelatine-resorcinol co-crystal of Example 1 were molded into a number of pellets having a constant surface area and then subjected to a dissolution testing.
Each powder specimen was put in a 13 mm pellet die (Specac, UK), squeezed down under a weight of 0.5 ton for 2 minutes with a hydraulic compressor and then molded into pellets having a constant surface area of 1.33 cm^2.
The pellets thus obtained were immobilized in 900 ml of a testing solution (pH 1.2 HCl aqueous solution and pH 6.8 phosphate-buffer solution) at 37° C., which solution was stirred with USP equipment 2 (paddle method) operated at 50 rpm. Then, the concentration of the agomelatine released from the pellets was measured.
3 ml of the testing solution was collected each time of 3 min, 5 min, 10 min, 15 min, 20 min, 25 min, 30 min, 45 min, 60 min, 75 min, 90 min, 105 min, and 120 min. The concentration (dissolved amount) of agomelatine in the collected solution was measured with UV-3600 (Shimadzu, Japan) spectrochemical analysis equipment.
FIG. 11 presents the results of the dissolution testing for the agomelatine and the agomelatine-resorcinol co-crystal in an aqueous solution of HCl (pH 1.2) and a phosphate-buffered solution (pH 6.8).

[2] = Thermal stability testing: powder kept at 70° C., then X-ray diffraction analysis; assay type: physicochemical
Excerpt: In other words, the antisolvent method of the present invention makes it possible to produce an agomelatine-resorcinol co-crystal with higher stability.

[3] = Medium pH = 1.2 HCl aqueous solution
[4] = Medium pH = 6.8 phosphate-buffer solution

| crystal form after storage (XRD) ([2]; same temperature conditions (70° C.), 7 days) | Molecule | Dissolution rate (intrinsic dissolution rate in terms of ratio) [1, 3] | Dissolution rate (intrinsic dissolution rate in terms of ratio) [1, 4] | crystal form after storage (XRD) ([2]; kept at 70° C. for 30 days) | dissolution rate higher than agomelatine ([1]; acidic medium (pH 1.2)) [fold] | dissolution rate higher than agomelatine ([1]; neutral medium (pH 6.8)) [fold] |
| --- | --- | --- | --- | --- | --- | --- |
|  | COc1ccc2cccc(CCNC(C)=O)c2c1 [Agomelatine, agomelatine] | 1.0 | 1.0 |  |  |  |
|  | agomelatine-resorcinol co-crystal [Example 1] | 2.3 | 3.2 | pure crystal form was maintained | 2.3 | 3.2 |
| deformation occurred | agomelatine-resorcinol co-crystal [Preparation Example 1, reference compound] |  |  |  |  |  |
